Source: paper PMC11396129, “Oxindole–benzothiazole hybrids as CDK2 inhibitors and anticancer agents: design, synthesis and biological evaluation” (BMC Chemistry, 2024)

Key:
Format in all cases: cell-based, human
A549/ATCC = assay: NCI 60 panel growth inhibition (SRB), non-small cell lung cancer; settings: for GI%: 10 μM
Outline: (§1)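 Compound stocks in DMSO (400× final top concentration) are diluted to 2× in gentamicin-containing medium, then serially to five levels. Cells, seeded 5000–40,000/well, receive drug 24 h after plating; adherent lines end with cold TCA fixation.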

EKVX = assay: as above; settings: for GI%: 10 μM
Outline: as §1

HOP-62 = assay: as above; settings: for GI%: HOP-62, 10 μM
Outline: as §1

HOP-92 = assay: as above; settings: for GI%: HOP-92, 10 μM
Outline: as §1

NCI-H226 = assay: as above; settings: for GI%: NCI-H226, 10 μM
Outline: as §1

NCI-H23 = assay: as above; settings: for GI%: NCI-H23, 10 μM
Outline: as §1

NCI-H322M = assay: as above; settings: for GI%: 10 μM
Outline: as §1

NCI-H460 = assay: as above; settings: for GI%: NCI-H460, 10 μM
Outline: as §1

NCI-H522 = assay: as above; settings: for GI%: NCI-H522, 10 μM
Outline: as §1

COLO 205 = assay: NCI 60 panel growth inhibition (SRB), colon cancer; settings: for GI%: COLO 205, 10 μM
Outline: as §1

HCC-2998 = assay: NCI 60 panel growth inhibition (SRB), colon cancer; settings: for GI%: HCC-2998, 10 μM
Outline: as §1

HCT-116 = assay: NCI 60 panel growth inhibition (SRB), colon cancer; settings: for GI%: HCT-116, 10 μM
Outline: as §1

HCT-15 = assay: NCI 60 panel growth inhibition (SRB), colon cancer; settings: for GI%: HCT-15, 10 μM
Outline: as §1

KM12 = assay: NCI 60 panel growth inhibition (SRB), colon cancer; settings: for GI%: KM12, 10 μM
Outline: as §1

SW-620 = assay: NCI 60 panel growth inhibition (SRB), colon cancer; settings: for GI%: SW-620, 10 μM
Outline: as §1

LOX IMVI = assay: NCI 60 panel growth inhibition (SRB), melanoma; settings: for GI%: 10 μM
Outline: as §1

M14 = assay: NCI 60 panel growth inhibition (SRB), melanoma; settings: for GI%: M14, 10 μM
Outline: as §1

MALME-3M = assay: NCI 60 panel growth inhibition (SRB), melanoma; settings: for GI%: 10 μM
Outline: as §1

MDA-MB-435 = assay: NCI 60 panel growth inhibition (SRB), melanoma; settings: for GI%: MDA-MB-435, 10 μM
Outline: as §1

SK-MEL-28 = assay: NCI 60 panel growth inhibition (SRB), melanoma; settings: for GI%: SK-MEL-28, 10 μM
Outline: as §1

SK-MEL-5 = assay: NCI 60 panel growth inhibition (SRB), melanoma; settings: for GI%: SK-MEL-5, 10 μM
Outline: as §1

UACC-257 = assay: NCI 60 panel growth inhibition (SRB), melanoma; settings: for GI%: UACC-257, 10 μM
Outline: as §1

UACC-62 = assay: NCI 60 panel growth inhibition (SRB), melanoma; settings: for GI%: UACC-62, 10 μM
Outline: as §1

RXF 393 = assay: NCI 60 panel growth inhibition (SRB), renal cancer; settings: for GI%: RXF 393, 10 μM
Outline: as §1

TK-10 = assay: NCI 60 panel growth inhibition (SRB), renal cancer; settings: for GI%: TK-10, 10 μM
Outline: as §1

UO-31 = assay: NCI 60 panel growth inhibition (SRB), renal cancer; settings: for GI%: UO-31, 10 μM
Outline: as §1

DU-145 = assay: NCI 60 panel growth inhibition (SRB), prostate cancer; settings: for GI%: DU-145, 10 μM
Outline: as §1

PC-3 = assay: as above; settings: for GI%: PC-3, 10 μM
Outline: as §1

BT-549 = assay: NCI 60 panel growth inhibition (SRB), breast cancer; settings: for GI%: BT-549, 10 μM
Outline: as §1

HS 578T = assay: as above; settings: for GI%: 10 μM
Outline: as §1

MCF7 = assay: as above; settings: for GI%: MCF7, 10 μM
Outline: as §1

MDA-MB-231/ATCC = assay: as above; settings: for GI%: 10 μM
Outline: as §1

MDA-MB-468 = assay: as above; settings: for GI%: MDA-MB-468, 10 μM
Outline: as §1

T-47D = assay: as above; settings: for GI%: 10 μM
Outline: as §1

`COc1ccc2c(c1)C(=NNC(=O)COc1cc(-c3nc4ccccc4s3)ccc1OC)C(=O)N2` [Compound 9o, 2-(5-(Benzo[d]thiazol-2-yl)-2-methoxyphenoxy)-N′-(5-methoxy-2-oxoindolin-3-ylidene)acetohydrazide] showed a GI% (A549/ATCC) of 39.87%, a GI50 (A549/ATCC; Homo sapiens, five dose) of 30.9 µM and a GI% (EKVX) of 55.62%. The GI50 (EKVX; Homo sapiens, five dose) was 20 µM, the GI50 (HOP-62; Homo sapiens, HOP-62, five dose) was 7.84 µM and the GI% (HOP-92) was 15.22%. For the same compound, the GI50 (HOP-92; Homo sapiens, HOP-92, five dose) was 51.9 µM, the GI50 (NCI-H226; Homo sapiens, NCI-H226, five dose) was 21.3 µM and the GI% (NCI-H226) was 5.08%. The GI50 (NCI-H23; Homo sapiens, NCI-H23, five dose) was 3.03 µM, the GI% (NCI-H23) was 84.74% and the GI% (NCI-H322M) was 9.70%. It also gave a GI50 (NCI-H322M; Homo sapiens, five dose) greater than 100 µM, a GI50 (NCI-H460; Homo sapiens, NCI-H460, five dose) of 9.26 µM and a GI% (NCI-H460) of 106.89%. For the same compound, the GI50 (NCI-H522; Homo sapiens, NCI-H522, five dose) was 48 µM, the GI% (NCI-H522) was 5.70% and the GI50 (COLO 205; Homo sapiens, COLO 205, five dose) was 10.6 µM. The GI% (HCC-2998) was 44.35%, the GI50 (HCC-2998; Homo sapiens, HCC-2998, five dose) was 5.34 µM and the GI% (HCT-116) was 87.90%. It also gave a GI50 (HCT-116; Homo sapiens, HCT-116, five dose) of 4.5 µM, a GI% (HCT-15) of 127.40% and a GI50 (HCT-15; Homo sapiens, HCT-15, five dose) of 3.6 µM. The GI50 (KM12; Homo sapiens, KM12, five dose) was greater than 100 µM, the GI% (KM12) was 36.53% and the GI50 (SW-620; Homo sapiens, SW-620, five dose) was 2.27 µM. For the same compound, the GI% (SW-620) was 148.26%, the GI% (LOX IMVI) was 160.95% and the GI50 (LOX IMVI; Homo sapiens, five dose) was 4.09 µM. The GI50 (M14; Homo sapiens, M14, five dose) was 47.4 µM, the GI% (M14) was 39.13% and the GI% (MALME-3M) was 35.23%. It also gave a GI50 (MALME-3M; Homo sapiens, five dose) of 2.28 µM, a GI50 (MDA-MB-435; Homo sapiens, MDA-MB-435, five dose) of 20.6 µM and a GI% (MDA-MB-435) of 96.57%. For the same compound, the GI50 (SK-MEL-28; Homo sapiens, SK-MEL-28, five dose) was greater than 100 µM, the GI% (SK-MEL-28) was 37.85% and the GI50 (SK-MEL-5; Homo sapiens, SK-MEL-5, five dose) was 41.5 µM. The GI% (SK-MEL-5) was 24.21%, the GI50 (UACC-257; Homo sapiens, UACC-257, five dose) was greater than 100 µM and the GI% (UACC-257) was “– (GI% < 5%)”. The GI50 (UACC-62; Homo sapiens, UACC-62, five dose) was 59.3 µM, the GI% (UACC-62) was “– (GI% < 5%)” and the GI50 (RXF 393; Homo sapiens, RXF 393, five dose) was 5.06 µM. It also gave a GI% (RXF 393) of 129.01%, a GI50 (TK-10; Homo sapiens, TK-10, five dose) of 71.7 µM and a GI% (TK-10) of 86.88%. The GI50 (UO-31; Homo sapiens, UO-31, five dose) was 2.03 µM, the GI% (UO-31) was 44.24% and the GI% (DU-145) was 130.12%. It also gave a GI50 (DU-145; Homo sapiens, DU-145, five dose) of 2.92 µM, a GI50 (PC-3; Homo sapiens, PC-3, five dose) of 3.78 µM and a GI% (PC-3) of 49.56%. It also gave a GI% (BT-549) of 33.89%, a GI50 (BT-549; Homo sapiens, BT-549, five dose) of 17.6 µM and a GI% (HS 578T) of 34.64%. It also gave a GI50 (HS 578T; Homo sapiens, five dose) of 24.8 µM, a GI50 (MCF7; Homo sapiens, MCF7, five dose) of 3.44 µM and a GI% (MCF7) of 82.77%. For the same compound, the GI% (MDA-MB-231/ATCC) was 75.41%, the GI50 (MDA-MB-231/ATCC; Homo sapiens, five dose) was 5.44 µM and the GI50 (MDA-MB-468; Homo sapiens, MDA-MB-468, five dose) was 3.72 µM. The GI% (MDA-MB-468) was 60.54% and the GI50 (T-47D; Homo sapiens, T47D, five dose) was 41 µM.

With `COc1cccc(-c2nc3ccccc3s2)c1OCC(=O)NN=C1C(=O)Nc2ccc([N+](=O)[O-])cc21` [Compound 9j, 2-(2-(Benzo[d]thiazol-2-yl)-6-methoxyphenoxy)-N′-(5-nitro-2-oxoindolin-3-ylidene)acetohydrazide] the GI% (A549/ATCC) was 5.97%, the GI% (EKVX) was 26.64% and the GI% (HOP-62) was “– (GI% < 5%)”. The GI% (HOP-92) was 30.70%, the GI% (NCI-H226) was 21.82% and the GI% (NCI-H23) was 22.82%. The GI% (NCI-H322M) was 6.18%, the GI% (NCI-H460) was “– (GI% < 5%)” and the GI% (NCI-H522) was “– (GI% < 5%)”. For the same compound, the GI% (COLO 205) was “– (GI% < 5%)”, the GI% (HCC-2998) was “– (GI% < 5%)” and the GI% (HCT-116) was 7.08%. The GI% (HCT-15) was 5.47%, the GI% (KM12) was 5.79% and the GI% (SW-620) was “– (GI% < 5%)”. For the same compound, the GI% (LOX IMVI) was “– (GI% < 5%)”, the GI% (M14) was 8.57% and the GI% (MALME-3M) was 12.74%. For the same compound, the GI% (MDA-MB-435) was 6.00%, the GI% (SK-MEL-28) was “– (GI% < 5%)” and the GI% (SK-MEL-5) was 24.59%. For the same compound, the GI% (UACC-257) was 5.08%, the GI% (UACC-62) was 11.06% and the GI% (RXF 393) was 9.05%. For the same compound, the GI% (TK-10) was “– (GI% < 5%)”, the GI% (UO-31) was 25.41% and the GI% (DU-145) was 6.78%. For the same compound, the GI% (PC-3) was 18.80%, the GI% (BT-549) was “– (GI% < 5%)” and the GI% (HS 578T) was “– (GI% < 5%)”. The GI% (MCF7) was 25.07%, the GI% (MDA-MB-231/ATCC) was 8.73% and the GI% (MDA-MB-468) was 6.21%. For the same compound, the GI% (T-47D) was “– (GI% < 5%)”.

`COc1ccc2c(c1)C(=NNC(=O)COc1c(OC)cccc1-c1nc3ccccc3s1)C(=O)N2` [Compound 9i, 2-(2-(Benzo[d]thiazol-2-yl)-6-methoxyphenoxy)-N′-(5-methoxy-2-oxoindolin-3-ylidene)acetohydrazide] was tested, and the GI% (A549/ATCC) was 18.26%, the GI% (EKVX) was 24.10% and the GI% (HOP-62) was “– (GI% < 5%)”. For the same compound, the GI% (HOP-92) was 31.66%, the GI% (NCI-H226) was 29.04% and the GI% (NCI-H23) was 11.65%. The GI% (NCI-H322M) was 5.89%, the GI% (NCI-H460) was “– (GI% < 5%)” and the GI% (NCI-H522) was 7.04%. The GI% (COLO 205) was “– (GI% < 5%)”, the GI% (HCC-2998) was “– (GI% < 5%)” and the GI% (HCT-116) was 17.55%. The GI% (HCT-15) was 9.87%, the GI% (KM12) was 8.46% and the GI% (SW-620) was “– (GI% < 5%)”. For the same compound, the GI% (LOX IMVI) was “– (GI% < 5%)”, the GI% (M14) was 7.92% and the GI% (MALME-3M) was 12.81%. For the same compound, the GI% (MDA-MB-435) was “– (GI% < 5%)”, the GI% (SK-MEL-28) was “– (GI% < 5%)” and the GI% (SK-MEL-5) was 51.82%. For the same compound, the GI% (UACC-257) was “– (GI% < 5%)”, the GI% (UACC-62) was 25.33% and the GI% (RXF 393) was 15.41%. For the same compound, the GI% (TK-10) was “– (GI% < 5%)”, the GI% (UO-31) was 30.29% and the GI% (DU-145) was “– (GI% < 5%)”. For the same compound, the GI% (PC-3) was 43.62%, the GI% (BT-549) was 16.10% and the GI% (HS 578T) was “– (GI% < 5%)”. The GI% (MCF7) was 23.12%, the GI% (MDA-MB-231/ATCC) was 10.30% and the GI% (MDA-MB-468) was 30.66%. The GI% (T-47D) was 37.57%.
